The record followed here is US8026231B2, “Aminothiolester compounds, pharmaceutical and cosmetic compositions containing same and uses thereof” (CNRS, priority 2000, dated 2011).

As usually defined, the IC50 is the concentration at which inhibition is half-maximal. Low values mean greater potency in that assay, high ones weaker potency in that assay. A word on the inhibition: it is the change of the read-out against control, counted positive when it falls.

Molecules are shown by their SMILES.

Experiment [1] deals with DU145 cells. The experiment in a line: Growth of DU145 cells (protein and DNA assay, 72 h). The class given is cell-based, human. As for the experimental part: (§1) The cells used correspond to two cell lines: metastatic cells of human prostate cancer (DU145) and murine lymphoid cells transfected with the human bcl2 gene (BAF3 bcl2).
The procedure used for the tests on DU145 is as follows: • 10^5 cells are incubated in the various wells of a microplate in 1 ml of culture medium.
(§2) The compounds are added 4 hours after placing the cells in the wells.
After 72 hours, the cells are removed at different times. The DU145 cells are washed twice with PBS and recovered directly with 0.1M sodium chloride.
The effect on the growth of the DU145 cells is measured by protein assay according to the Lowry method (Lowry, O. H., Rosenbrough, N. J., Farr, A. L. and Randall, J. Biol. Chem. 193, 265-275, (1951)) and DNA assay by the Hoechst method (West, D. C., Sattar, A. and Kumar, S., Anal. Biochem. 147, 289-295, (1985)).
(§3) The IC50 concentration is the concentration corresponding to a 50% inhibition of cell growth.

Another experiment relates to BAF3 bcl2 cells. As to the kind of experiment: Growth of BAF3 bcl2 cells (viable cell count, Trypan blue). The class given is cell-based, murine. Particulars: 50% inhibition of cell growth. As for the experimental part:
as §1
The procedure used for the tests on BAF3 bcl2 cells is as follows: • 10^5 cells are incubated in the various wells of a microplate in 1 ml of culture medium. After incubation for 4 hours, the test compounds are added to the wells containing the BAF3 bcl2 cells.
For the BAF3 bcl2 cells, the growth is measured by counting the viable cells in the presence of 0.1% Trypan blue. The control consists of thioampal, disclosed in patent application WO 98/44919.
as §3

In experiment [2] the test system is normal human prostate cells. The experiment in a line: Combination of two compounds of the invention on normal human prostate cells. Particulars: Homo sapiens, Prostate cell. The experiment is classed as cell-based. As for the experimental part:
(§4) 10^5 normal human prostate cells or 10^5 cancerous human prostate cells (DU145) are incubated in various wells of a microplate in 1 ml of culture medium.
as §2
(§5) After 72 hours, the cells are removed at different times. The DU145 cells or the normal cells are washed twice with PBS and recovered directly with 0.1M sodium chloride.
(§6) The effect on the growth of the DU145 cells or the normal cells is measured by protein assay according to the Lowry method (Lowry, O. H., Rosenbrough, N. J., Farr, A. L. and Randall, J. Biol. Chem. 193, 265-275, (1951)) and DNA assay by the Hoechst method (West, D. C., Sattar, A. and Kumar, S., Anal. Biochem. 147, 289-295, (1985)).

Experiment [3] deals with DU145 cells. The experiment in a line: Combination of two compounds of the invention on the growth of DU145 cells. The experiment is classed as cell-based, human. Particulars: Homo sapiens, DU-145. As for the experimental part: as §4, §2, §5, §6
The subject of experiment [4] is DU145 cells. The experiment in a line: Combination of Example 1 and Metmetlico on the growth of DU145 cells. The experiment is classed as cell-based, human. As for the experimental part:
The cells used correspond to metastatic cells of human prostate cancer DU145. 10^5 DU145 cells are incubated in the various wells of a microplate in 1 ml of culture medium. The test compounds are added 4 hours after placing the cells in the wells. After 72 hours, the cells are removed at different times. The cells are washed twice with PBS and recovered directly with 0.1M sodium chloride. The effect on the growth of DU145 cells is measured by protein assay according to the Lowry method (Lowry, O. H., Rosenbrough, […]. and Randall, J. Biol. Chem. 193, 265-275, (1951)) and DNA assay by the Hoechst method (West, […]. and Kumar, S., Anal. Biochem. 147, 289-295, (1985)). The test compounds are the compound of Example 1, metmetlico and a mixture thereof.

The next experiment relates to K562 cells. The experiment in a line: Growth of K562 cells (control, no MDR overexpression). The class given is cell-based, human. Particulars: increasing concentrations, 72 h, FIGS. 7 and 8. How it is done:
(§7) 10^5 cells were incubated in the various wells of a microplate in 1 ml of culture medium. These are R7 cells, on the one hand, and K562 cells, on the other hand.
(§8) After incubating for 4 hours, the test compound (compound of Example 1 according to the invention, on the one hand, and daunorubicin, on the other hand) was added to the wells containing the cells.
(§9) After 72 hours, the cells were collected at different times.
(§10) The growth of the cells was measured by counting the viable cells in the presence of 0.1% Trypan blue.
(§11) FIGS. 7 and 8 respectively represent the percentage inhibition (I %) by daunorubicin and the compound of Example 1 on the growth of the R7 and K562 cells, obtained at increasing concentrations C. The results obtained with the K562 cells are symbolized by ♦ and those obtained with the R7 cells are symbolized by ▴.

In the next experiment the test system is R7 cells. The experiment in a line: Growth of R7 cells which overexpress the MDR gene. The experiment is classed as cell-based. Particulars: increasing concentrations, 72 h, FIGS. 7 and 8. As for the experimental part:
as §7, §8, §9, §10, §11

[5] abbreviates: Homo sapiens, DU-145, 50% inhibition of cell growth.

For the compound `CCCN(CCC)C(C)(C)C#CC(=O)SC` [Example 3, S-methyl 4-di-n-propylamino-4-methyl-2-pentynethioate], the IC50 with DU145 cells [1] (setting [5]) is 8 µM; in the experiment with BAF3 bcl2 cells (Mus musculus) it was 2.7 µM.
In the case of `CSC(=O)C#CC(C)(C)N1CCCC1` [Example 4, S-methyl 4-methyl-4-pyrrodin-1-yl-2-pentynethioate], the IC50 in the experiment with DU145 cells [1] (50% inhibition of cell growth) was 7.2 µM; in the experiment on BAF3 bcl2 cells it was 2.7 µM.
Consider `CSC(=O)C#CC(C)(C)N1CCOCC1` [Example 5, S-methyl 4-methyl-4-morpholin-4-yl-2-pentynethioate], for which the inhibition at 1 µM in experiment [2] (1 μM) stood at 0%; in the experiment on DU145 cells [3] (1 μM), 14.3%. For the same compound, the inhibition at 2 µM in experiment [2] (2 μM) is 1.3%; with DU145 cells [3] (2 μM), 25.2%. Moreover, the figures for the half-inhibitory concentration (IC50) in the experiment with DU145 cells [1] (setting [5]) and with BAF3 bcl2 cells (Mus musculus) were 8.8 µM and 12 µM, respectively.
`CSCCC(=O)SCCC(CCCCC(=O)OCC[N+](C)(C)C)SC(=O)CCSC.[I-]` (stereo not drawn) [Metmetlico, 2′-(trimethylammonium)ethyl 6S,8S-bis(3-methyl-thiopropanoyl)octanoate iodide, reference compound]: the “% Inhibition of growth of the DU145 cells” value in the experiment with DU145 cells [4] (25 μM) and in the experiment on DU145 cells [4] (50 μM) was 0% in each case.
`COc1cccc2c1C(=O)c1c(O)c3c(c(O)c1C2=O)C[C@@](O)(C(C)=O)C[C@@H]3O[C@H]1C[C@H](N)[C@H](O)[C@H](C)O1` [daunorubicin, reference compound]: the “Inhibition of the growth of the K562 cells” value in the experiment with K562 cells is on record as “inhibits the growth of the K562 cells”. Moreover, the “Inhibition of the growth of the R7 cells” value with R7 cells is recorded as “no inhibitory effect on the growth of the R7 cells”.
